Measured values: publication PMC10626578, “Designed switch from covalent to non-covalent inhibitors of carboxylesterase Notum activity” (European Journal of Medicinal Chemistry, 2023)
In brackets after ≈: the same amount, converted by molar mass. Like-named read-outs stand apart in the source and are kept apart here. Each block holds one compound with its values, some of them ahead of it.

What was measured:
[1] = molecular target: T1, Notum (core, 81–451C330S) (Homo sapiens, UniProt Q6P988, C330S); experiment: Notum-OPTS biochemical assay, Notum (81–451C330S); conditions: for fold increase in Notum inhibition over 3a: vs 3a, more potent
T1 construct: high-throughput biochemical assay with Notum (81–451C330S) and OPTS as a synthetic fluorescent substrate; made in house
T1 sequence (Q6P988 81-451 C330S): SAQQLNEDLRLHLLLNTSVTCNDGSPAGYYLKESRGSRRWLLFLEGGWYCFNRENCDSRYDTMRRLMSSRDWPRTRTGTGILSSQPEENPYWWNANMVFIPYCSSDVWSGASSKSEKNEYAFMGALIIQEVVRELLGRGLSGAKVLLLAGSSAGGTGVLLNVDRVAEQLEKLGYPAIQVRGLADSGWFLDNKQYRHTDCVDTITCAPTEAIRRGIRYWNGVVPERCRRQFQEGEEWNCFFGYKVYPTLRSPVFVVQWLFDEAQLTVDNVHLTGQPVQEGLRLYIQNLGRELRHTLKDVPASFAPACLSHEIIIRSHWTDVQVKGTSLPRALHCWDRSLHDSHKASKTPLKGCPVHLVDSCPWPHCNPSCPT
Experimental: Notum inhibitors 3–5 (Table 1, Table 2, Table 3, Table 4) were either purchased or prepared using established synthetic methods from readily available starting materials (Scheme 1). Where necessary, the synthesis of many of these amines (e.g. 6) have been reported previously and full details of their preparation have been included in the Experimental Section. Notum inhibition activity was determined using the standard Notum-OPTS biochemical assay using IC50 values. These values were used to compare relative activities with covalent inhibitors under carefully regulated assay conditions. […] Selected inhibitors were screened for inhibition of Notum activity in a TCF/LEF Reporter (Luciferase) cell line with exogenous WNT3a and Notum, and soaked into Notum crystals to determine their binding modes and evidence of MoA.
(§1) Methods have been described in detail.

[2] = Stability in human liver microsomes; assay type: in vitro ADME; conditions: for half-life: human, read-out: HLM Stability t1/2
Experimental: (§2) Selected compounds were routinely screened for aqueous solubility in PBS (pH 7.4), transit performance in MDCK-MDR1 cell lines for permeability, and metabolic stability in MLM and HLM as a measure of clearance. The main metabolites and routes of metabolism of 4y were determined in MLM. Assay protocols and additional data are presented in the Supplementary Material (Tables S1–S7). ADME studies reported in this work were performed by WuXi AppTec (Shanghai, China).
(§3) Representative assay protocols have been described in detail. ^1,2

[3] = Stability in mouse liver microsomes; assay type: in vitro ADME; conditions: for half-life at 1 h / half-life: mouse, read-out: MLM Stability t1/2
Experimental: as §2, §3

[4] = Aqueous solubility in PBS (pH 7.4); assay type: physicochemical; conditions: for solubility thermodynamic: PBS, Table S2, pH 7.4, n = 2, * below lower limit of quantification, read-out: Thermodynamic Solubility @ RT
Experimental: as §2, §3

[5] = molecular target: T2, Notum (Homo sapiens, UniProt Q6P988); experiment: TCF/LEF Reporter (Luciferase) cell line with exogenous WNT3a and Notum; assay type: cell-based
T2 construct: host or cells: TCF/LEF Reporter (Luciferase) cell line; Notum added exogenously
T2 sequence (Q6P988 20-496): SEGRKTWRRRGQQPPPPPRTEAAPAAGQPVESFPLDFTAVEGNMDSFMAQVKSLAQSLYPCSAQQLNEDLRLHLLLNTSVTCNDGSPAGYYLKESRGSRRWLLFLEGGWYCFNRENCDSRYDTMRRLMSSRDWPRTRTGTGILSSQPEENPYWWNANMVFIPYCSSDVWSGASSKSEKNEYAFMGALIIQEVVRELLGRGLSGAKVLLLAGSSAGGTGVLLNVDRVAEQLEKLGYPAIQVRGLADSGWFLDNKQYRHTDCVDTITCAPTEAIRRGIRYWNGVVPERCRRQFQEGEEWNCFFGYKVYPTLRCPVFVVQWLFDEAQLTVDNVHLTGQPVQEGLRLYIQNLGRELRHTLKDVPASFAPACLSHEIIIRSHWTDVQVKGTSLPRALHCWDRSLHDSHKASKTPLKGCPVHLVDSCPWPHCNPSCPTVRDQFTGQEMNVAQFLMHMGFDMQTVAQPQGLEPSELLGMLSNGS
Experimental: Notum inhibitors 3–5 (Table 1, Table 2, Table 3, Table 4) were either purchased or prepared using established synthetic methods from readily available starting materials (Scheme 1). Where necessary, the synthesis of many of these amines (e.g. 6) have been reported previously and full details of their preparation have been included in the Experimental Section. Notum inhibition activity was determined using the standard Notum-OPTS biochemical assay using IC50 values. These values were used to compare relative activities with covalent inhibitors under carefully regulated assay conditions. Confirmed inhibitors were routinely screened in in vitro ADME assays. Selected inhibitors were screened for inhibition of Notum activity in a TCF/LEF Reporter (Luciferase) cell line with exogenous WNT3a and Notum, and soaked into Notum crystals to determine their binding modes and evidence of MoA. […]
as §1

[6] = tested on: TCF/LEF Reporter (Luciferase) cell line; experiment: TCF/LEF reporter (Luciferase) assay with WNT3A in the absence of Notum; assay type: cell-based; conditions: up to 10 μM
Experimental: Early leads 4v, 4w and 4y were then evaluated in additional pharmacology and ADME screens (Table 3). […] Screening 4w and 4y in the biochemical assay using full length Notum and OPTS confirmed potent inhibition of Notum activity.
Figure S4D. Notum TCF/LEF reporter (Luciferase) data with WNT3A (200 ng/mL) in the absence of Notum. Representative response-concentration curves are for 4w (2 of 6 shown) from a larger data set for compounds 3-5. Examples are from different screening runs.

[7] = Table 2, mean ± s.d. of n = 4–12, >10 = 20–50% inhibition @ 10 μM, read-out: Notum IC50
[8] = Table 4, mean ± s.d. of n = 4–8, >10 = 20–50% inhibition @ 10 μM, read-out: Notum IC50
[9] = Table 1, mean ± s.d. of n = 2–6, inactive = <20% inhibition @ 10 μM, >10 = 20–50% inhibition @ 10 μM, 2a covalent, IC50 time-dependant, read-out: Notum IC50
[10] = Table 1, mean ± s.d. of n = 2–6, inactive = <20% inhibition @ 10 μM, >10 = 20–50% inhibition @ 10 μM, 2a covalent, IC50 time-dependant

- half-life at 1 h [3]: 16 min
Structure (SMILES): O=C1N2c3ccccc3CC2CC1(F)F (stereo not shown) [Compound 5m, 2,2-Difluoro-1,2,9,9a-tetrahydro-3H-pyrrolo[1,2-a]indol-3-one]

- IC50 [1, 8]: 1000 ± 300 nM
- MLM Stability Cli [3]: 200 µL/min/mg protein
- half-life [3]: 7 min
Structure (SMILES): CS(=O)(=O)N1CC2(CC2)c2c(Cl)cccc21 [Compound 5b, 4′-Chloro-1'-(methylsulfonyl)spiro[cyclopropane-1,3′-indoline]]

- IC50 [1, 8]: 31 ± 4 nM
- MLM Stability Cli [3]: 1320 µL/min/mg protein
- half-life [3]: 1.1 min
- solubility thermodynamic [4]: < 0.36 µg/mL
Structure (SMILES): CC(=O)n1ccc2c(Cl)c(Cl)ccc21 [Compound 5d, 1-(4,5-Dichloro-1H-indol-1-yl)ethan-1-one]

- IC50 [1, 8]: 180 ± 20 nM
- fold increase in Notum inhibition over 3a [1]: 2 fold
- MLM Stability Cli [3]: 73 µL/min/mg protein
- half-life [3]: 19 min
- half-life at 1 h [3]: 18 min
- solubility thermodynamic [4]: 577 µg/mL (≈ 3330 µM)
Structure (SMILES): O=C1CCC2Cc3ccccc3N12 (stereo not shown) [Compound 5f, 1,2,9,9a-Tetrahydro-3H-pyrrolo[1,2-a]indol-3-one]

- IC50 [1, 8]: 4400 ± 300 nM
Structure (SMILES): CC(C)C(=O)N1CC2(CC2)c2c(Cl)cccc21 [Compound 5a, 1-(4′-Chlorospiro[cyclopropane-1,3′-indolin]-1′-yl)-2-methylpropan-1-one]

- IC50 [1, 8]: 6100 ± 700 nM
Structure (SMILES): O=C1OCC2Cc3ccccc3N12 (stereo not shown) [Compound 5h, 9,9a-Dihydro-1H,3H-oxazolo[3,4-a]indol-3-one]

- IC50 [1, 8]: 8500 ± 2100 nM
Structure (SMILES): CC(=O)N1CCOc2c(Cl)cccc21 [Compound 5e, 1-(8-Chloro-2,3-dihydro-4H-benzo[b][1,4]oxazin-4-yl)ethan-1-one]

- IC50 [1, 8]: 730 ± 40 nM
Structure (SMILES): CC(=O)n1ccc2c(Cl)cccc21 [Compound 5c, 1-(4-Chloro-1H-indol-1-yl)ethan-1-one]

More lines, now with the values behind:

Structure (SMILES): CC(=O)N1CCc2c(Cl)cccc21 [Compound 4g, 1-(4-Chloroindolin-1-yl)ethan-1-one]
- IC50 [1, 7]: 40 ± 24 nM
- fold increase in Notum inhibition over 3a [1]: 10 fold
- HLM Stability Cli [2]: 640 µL/min/mg protein
- half-life [2]: 2.2 min

Structure (SMILES): CC(=O)N1CC2(CC2)c2c1cccc2C(F)(F)F [Compound 4aa, 1-(4'-(Trifluoromethyl)spiro[cyclopropane-1,3′-indolin]-1′-yl)ethan-1-one]
- IC50 [1, 7]: 17 ± 2 nM
- MLM Stability Cli [3]: 670 µL/min/mg protein
- half-life [3]: 2 min

Structure (SMILES): CC(=O)N1CC2(CC2)c2cc(Cl)ccc21 [Compound 4z, 1-(5′-Chlorospiro[cyclopropane-1,3′-indolin]-1′-yl)ethan-1-one]
- IC50 [1, 7]: 34 ± 10 nM
- MLM Stability Cli [3]: 620 µL/min/mg protein
- half-life [3]: 2.2 min

Structure (SMILES): CC(=O)N1CCc2c1ccc(Cl)c2C(F)(F)F [Compound 4v, 1-(5-Chloro-4-(trifluoromethyl)indolin-1-yl)ethan-1-one]
- IC50 ([1]; Notum (core, 81–451C330S), read-out: OPTS, IC50): 1.3 ± 0.3 nM
- IC50 [1, 7]: 1.3 ± 0.3 nM
- EC50 ([5]; Notum (core, 81–451C330S), restoration of Wnt signalling, read-out: TCF-LEF, EC50): 28 ± 20 nM
- restoration of Wnt signalling in the presence of Notum ([5]; concentration-response curves up to 10 μM): restored Wnt signalling
- MLM Stability Cli [3]: 650 µL/min/mg protein
- microsomal CLint at 1 h ([3]; Table 3, read-out: MLM Clint): 650 µL/min/mg
- half-life [3]: 2.1 min
- assay interference or cell toxicity in the absence of Notum [6]: not by assay interference or cell toxicity
- solubility thermodynamic [4]: 1.55 µg/mL (≈ 5.88 µM)
- solubility ([4]; Table 3, PBS pH 7.4): 1.6 µg/mL (≈ 6.07 µM)

Structure (SMILES): CC(=O)N1CCc2ccccc21 [Compound 3a, 1-(Indolin-1-yl)ethan-1-one]
- IC50 [1, 9]: 400 ± 110 nM
- LE ([1]; ligand efficiency from Notum OPTS IC50): 0.75
- LLE ([1]; lipophilic ligand efficiency from Notum OPTS IC50 and clogP): 5.0
- fold more potent than 2b (Notum IC50) ([1]; vs 2b): 7 fold
- MLM Stability Cli [3]: 180 µL/min/mg protein
- half-life [3]: 8 min

Structure (SMILES): CC(=O)N1c2ccccc2CC1C (stereo not shown) [Compound 4a, 1-(2-Methylindolin-1-yl)ethan-1-one]
- IC50 [1, 7]: 2400 ± 1200 nM

Structure (SMILES): CC(=O)N1CC(C)(C)c2ccccc21 [Compound 4c, 1-(3,3-Dimethylindolin-1-yl)ethan-1-one]
- IC50 [1, 7]: 1400 ± 400 nM

Structure (SMILES): CC(=O)N1CCc2ccc(Cl)c(Cl)c21 [Compound 4x, 1-(6,7-Dichloroindolin-1-yl)ethan-1-one]
- IC50 [1, 7]: 2200 ± 600 nM

Structure (SMILES): CC(=O)n1cnc2ccccc21 [Compound 3l, 1-(1H-Benzo[d]imidazole-1-yl)ethan-1-one]
- Notum IC50 [1, 10]: inactive ^c

Structure (SMILES): CC(=O)N1CC2(CCC2)c2ccccc21 [Compound 4e, 1-(Spiro[cyclobutane-1,3′-indolin]-1′-yl)ethan-1-one]
- IC50 [1, 7]: 1800 ± 1200 nM

Structure (SMILES): CC(=O)N1CCc2cc(C)ccc21 [Compound 4q, 1-(5-Methylindolin-1-yl)ethan-1-one]
- IC50 [1, 7]: 220 ± 20 nM

Structure (SMILES): CC(=O)N1CCc2ccccc2C1 [Compound 3e, 1-(3,4-Dihydroisoquinolin-2(1H)-yl)ethan-1-one]
- IC50 [1, 9]: 8000 ± 2200 nM

Structure (SMILES): CC(=O)N1CCC(c2ccccc2)C1 (stereo not shown) [Compound 3f, 1-(3-Phenylpyrrolidin-1-yl)ethan-1-one]
- Notum IC50 [1, 10]: inactive ^c

Structure (SMILES): CC(=O)N1CCc2c1cccc2C(F)(F)F [Compound 4o, 1-(4-(Trifluoromethyl)indolin-1-yl)ethan-1-one]
- IC50 [1, 7]: 30 ± 4 nM
- HLM Stability Cli [2]: 900 µL/min/mg protein
- half-life [2]: 1.5 min

Structure (SMILES): CC(=O)N1CC2(CC2)c2ccccc21 [Compound 4d, 1-(Spiro[cyclopropane-1,3′-indolin]-1′-yl)ethan-1-one]
- IC50 [1, 7]: 61 ± 12 nM
- MLM Stability Cli [3]: 360 µL/min/mg protein
- half-life [3]: 3.8 min

Structure (SMILES): CC(=O)N1CCSc2ccccc21 [Compound 3n, 1-(2,3-Dihydro-4H-benzo[b][1,4]thiazin-4-yl)ethan-1-one]
- IC50 [1, 9]: 3600 ± 100 nM

Structure (SMILES): COc1ccc2c(c1)CCN2C(C)=O [Compound 4t, 1-(5-Methoxyindolin-1-yl)ethan-1-one]
- IC50 [1, 7]: 670 ± 80 nM

Structure (SMILES): CC(=O)N1CCc2cccc(Cl)c21 [Compound 4j, 1-(7-Chloroindolin-1-yl)ethan-1-one]
- IC50 [1, 7]: 6400 ± 900 nM
